Test results from US20140256664A1, “COMPOSITIONS AND METHODS FOR A MYCOBACTERIUM TUBERCULOSIS DRUG SUSCEPTIBILITY TEST” (priority 2011, published 2014).
Values joined by “and” are separate entries in the source; they are usually repeats but may differ in a detail not shown here. Equal values may be shown once. Where a name gives a salt, the structure may show the parent alone. Read-outs that look alike come from different tables or passages of the source.

Legend:
Format in all cases: cell-based, Mycobacterium tuberculosis
[1] = test system: 33 isolates of M. tuberculosis
M. tuberculosis isolates [2] = test system: M. tuberculosis isolates
M. tuberculosis isolates [3] = test system: M. tuberculosis isolates; remark: listed apart in the source
[4] = test system: clinical MDR strain (INH, RIF, EMB, STR resistant)

Compound | D29 phage assay Resistant (n isolates) [1] | D29 phage assay susceptible (n isolates) [1] | ΔCt of D29 phage assay resistant isolates [1] | Agar proportion Resistant (n isolates) (M. tuberculosis isolates [2]) | Agar proportion susceptible (n isolates) (M. tuberculosis isolates [2]) | number of phage / real-time PCR Ct value after drug pre-treatment [4] | further results
NCC[C@H](O)C(=O)N[C@@H]1C[C@H](N)[C@@H](O[C@H]2O[C@H](CN)[C@@H](O)[C@H](O)[C@H]2O)[C@H](O)[C@H]1O[C@H]1O[C@H](CO)[C@@H](O)[C@H](N)[C@H]1O [Amikacin, amikacin] | 1(−2.9) and 1(2.4) | 0 | 1(−2.9) and 1(2.4) | 1(16) and 1(8) | 0 |  | D29 phage assay Resistant (n isolates) ([1]; listed as AMK): 0; Agar proportion Resistant (n isolates) (M. tuberculosis isolates [2]; listed as AMK): 0; MIC of agar proportion resistant isolates (M. tuberculosis isolates [3]): 1(16) μg/ml and 1(8) μg/ml
CC[C@@H](CO)NCCN[C@@H](CC)CO [Ethambutol, ethambutol hydrochloride] |  |  |  |  |  |  | D29 phage assay Resistant (n isolates) ([1]; listed as EMB, hydrochloride): 0; Agar proportion Resistant (n isolates) (M. tuberculosis isolates [2]; listed as EMB, hydrochloride): 0
NNC(=O)c1ccncc1 [Isoniazid, isoniazid] |  | 0 |  |  | 0 | the phage number increased/Ct value decreased | D29 phage assay Resistant (n isolates) ([1]; listed as INH): 1 and 2
CO[C@H]1/C=C/O[C@@]2(C)Oc3c(C)c(O)c4c(O)c(c(/C=N/N5CCN(C)CC5)c(O)c4c3C2=O)NC(=O)/C(C)=C\C=C\[C@H](C)[C@H](O)[C@@H](C)[C@@H](O)[C@@H](C)[C@H](OC(C)=O)[C@@H]1C [Rifampin, rifampin] |  | 0 |  |  | 0 | the phage number increased/Ct value decreased | ΔCtRIF (Ct control−Ct drug) ([4]; […], drug, Tb inoculum and phage added at once, 24 h): −1
capreomycin sulfate | 1(−5.4) and 1(−3.3) | 0 | 1(−5.4) and 1(−3.3) | 1(ND) | 0 |  | D29 phage assay Resistant (n isolates) ([1]; listed as CAP): 1; ΔCt of D29 phage assay resistant isolates ([1]; listed as CAP): −5.4; Agar proportion Resistant (n isolates) (M. tuberculosis isolates [2]; listed as CAP): 0
